Data: patent US10676471B2, “Cycloalkyl-linked diheterocycle derivatives” (Pfizer Inc., priority 2014, dated 2020)

What follows are molecules tested on BT20 Cell (assay: Cancer Cell Lysate Total L-Glutamate Assay). Settings: Homo sapiens, BT-20, 2 h, total L-glutamate in cell lysate, BT20 cells, 2 hour incubation with test compound.
Type: cell-based
Procedure, shortened: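 BT20 and other cancer lines at ~80% confluence were given fresh L-glutamine-containing medium, then treated with serially diluted compound (0.5% DMSO) for 2 hours at 37° C. Washed cells were lysed by freeze-thaw and sonication. Lysate glutamate was measured via glutamate oxidase/HRP/50 μM Amplex Red fluorescence (ex 530-560, em 585 nm); IC50 by four-parameter logistic fit.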

Row | Structure (SMILES) | IC50 [nM]
1 | O=C(Cc1ccccc1)Nc1nnc(C[C@H]2CC[C@@H](c3nnc(NC(=O)Cc4ccccc4)s3)C2)s1 (single isomer, unassigned) [Example 10] | 33.3
2 | O=C(Cc1ccccn1)Nc1nnc(C[C@@H]2CC[C@H](c3nnc(Nc4ccccn4)s3)C2)s1 (single isomer, unassigned) [Example 133, 2-(pyridin-2-yl)-N-[5-({(cis)-3-[5-(pyridin-2-ylamino)-1,3,4-thiadiazol-2-yl]cyclopentyl}methyl)-1,3,4-thiadiazol-2-yl]acetamide] | 1.7
3 | O=C(Cc1ccccc1)Nc1ccc(C[C@@H]2CC[C@H](c3nnc(NC(=O)Cc4ccccn4)s3)C2)nn1 (single isomer, unassigned) [Example 82, 2-phenyl-N-(6-{[(cis)-3-{5-[(pyridin-2-ylacetyl)amino]-1,3,4-thiadiazol-2-yl}cyclopentyl]methyl}pyridazin-3-yl)acetamide] | 0.1
4 | C[C@H](C(=O)Nc1nnc(C[C@H]2CC[C@@H](c3nnc(NC(=O)[C@@H](C)c4cccnc4)s3)C2)s1)c1cccnc1 (single isomer, unassigned) [Example 32, 2-(pyridin-3-yl)-N-(5-{[(cis)-3-(5-{[2-(pyridin-3-yl)propanoyl]amino}-1,3,4-thiadiazol-2-yl)cyclopentyl]methyl}-1,3,4-thiadiazol-2-yl)propanamide] | 201
5 | O=C(Cc1ccccn1)Nc1nnc(C[C@H]2CC[C@@H](c3nnc(NC(=O)Cc4ccccn4)s3)C2)s1 (single isomer, unassigned) [Example 4] | 21.6
6 | CCNc1nnc([C@H]2C[C@H](Cc3ccc(NC(=O)Cc4ccccn4)nn3)C2)s1 (single isomer, unassigned) [Example 113, N-[6-({trans-3-[5-(ethylamino)-1,3,4-thiadiazol-2-yl]cyclobutyl}methyl)pyridazin-3-yl]-2-(pyridin-2-yl)acetamide] | 5.6
7 | O=C(Cc1ccccn1)Nc1ccc(C[C@@H]2CC[C@H](c3nnc(NC4CC4)s3)C2)nn1 (single isomer, unassigned) [Example 110, N-[6-({(cis)-3-[5-(cyclopropylamino)-1,3,4-thiadiazol-2-yl]cyclopentyl}methyl)pyridazin-3-yl]-2-(pyridin-2-yl)acetamide] | 2.3
8 | CC(=O)Nc1nnc(C[C@@H]2CC[C@H](c3nnc(NC(=O)Cc4ccncn4)s3)C2)s1 (single isomer, unassigned) [Example 20] | 137
9 | O=C(Cc1ccccn1)Nc1ccc(C[C@H]2CC[C@@H](c3nnc(Nc4ccccn4)s3)C2)nn1 (single isomer, unassigned) [Example 74, 2-(pyridin-2-yl)-N-[6-({(cis)-3-[5-(pyridin-2-ylamino)-1,3,4-thiadiazol-2-yl]cyclopentyl}methyl)pyridazin-3-yl]acetamide] | 3.4
10 | CC(C)C(=O)Nc1ccc(C[C@@H]2CC[C@H](c3nnc(NC(=O)Cc4ccccn4)s3)C2)nn1 (single isomer, unassigned) [Example 77, 2-methyl-N-(6-{[(cis)-3-{5-[(pyridin-2-ylacetyl)amino]-1,3,4-thiadiazol-2-yl}cyclopentyl]methyl}pyridazin-3-yl)propanamide] | 0.4
11 | Cn1ccc(C(=O)Nc2nnc(C[C@H]3CC[C@@H](c4nnc(NC(=O)Cc5ccccn5)s4)C3)s2)n1 (racemic) [Example 137, (rac)-1-methyl-N-(5-{[(cis)-3-{5-[(pyridin-2-ylacetyl)amino]-1,3,4-thiadiazol-2-yl}cyclopentyl]methyl}-1,3,4-thiadiazol-2-yl)-1H-pyrazole-3-carboxamide] | 4.4
12 | Cn1ccc(Nc2nnc([C@H]3CC[C@@H](Cc4nnc(NC(=O)Cc5ccccn5)s4)C3)s2)n1 (single isomer, unassigned) [Example 89, N-(5-{[(cis)-3-{5-[(1-methyl-1H-pyrazol-3-yl)amino]-1,3,4-thiadiazol-2-yl}cyclopentyl]methyl}-1,3,4-thiadiazol-2-yl)-2-(pyridin-2-yl)acetamide] | 3.9
13 | O=C(Cc1ccccn1)Nc1nnc(C[C@@H]2CC[C@@H](c3nnc(Nc4ccccn4)s3)C2)s1 (single isomer, unassigned) [Example 85, 2-(pyridin-2-yl)-N-[5-({3-[5-(trans)(pyridin-2-ylamino)-1,3,4-thiadiazol-2-yl]cyclopentyl}methyl)-1,3,4-thiadiazol-2-yl]acetamide] | 8.2
14 | CC(=O)Nc1nnc(C2CC3(C2)CC(c2nnc(NC(C)=O)s2)C3)s1 (racemic) [Example 141, N,N′-(spiro[3.3]heptane-2,6-diyldi-1,3,4-thiadiazole-5,2-diyl)diacetamide] | 298
15 | O=C(Cc1ccccn1)Nc1nnc(C[C@H]2C[C@H](c3nnc(NC(=O)Cc4ccccn4)s3)C2)s1 (single isomer, unassigned) [Example 23, 2-(pyridin-2-yl)-N-{5-[(trans-3-{5-[(pyridin-2-ylacetyl)amino]-1,3,4-thiadiazol-2-yl}cyclobutyl)methyl]-1,3,4-thiadiazol-2-yl}acetamide] | 9.9
16 | CC(=O)Nc1nnc(C[C@H]2CC[C@@H](c3nnc(NC(=O)Cc4cncnc4)s3)C2)s1 (single isomer, unassigned) [Example 59, N-{5-[(cis)-3-{[5-(acetylamino)-1,3,4-thiadiazol-2-yl]methyl}cyclopentyl]-1,3,4-thiadiazol-2-yl}-2-(pyrimidin-5-yl)acetamide] | 7760
17 | O=C(Cc1ccccn1)Nc1nnc(C2CC3(C2)CC(c2nnc(NC(=O)Cc4ccccn4)s2)C3)s1 (racemic) [Example 61, N,N′-(spiro[3.3]heptane-2,6-diyldi-1,3,4-thiadiazole-5,2-diyl)bis[2-(pyridin-2-yl)acetamide]] | 1.6
